These results are taken from ChEMBL document CHEMBL4354835, “Selective Blockade of Neuronal BK (α + β4) Channels Preventing Epileptic Seizure” (J Med Chem, 2020).

For experiment [1], the target named is KCNMA1/KCNMB4 (Homo sapiens, UniProt Q12791+Q86W47). Briefly: Inhibition of human BK alpha/beta4 channel expressed in HEK293T cells assessed as K+ outward current fraction at 10 uM at -80 mV holding potential by whole cell patch clamp method relative to control. The experiment is classed as cell-based. In general terms: Patch clamp records ionic current or voltage across a cell membrane.

Experiment [2] deals with Calcium-activated potassium channel subunit beta-4 (Homo sapiens, UniProt Q86W47, Q124A). Briefly: Binding affinity to NT-495 fluorophore reagent labelled human BK beta4 Q124A mutant incubated for 30 mins by microscale thermophoresis assay.
Chain of Calcium-activated potassium channel subunit beta-4 (Homo sapiens, UniProt Q86W47, Q124A) (Q86W47 whole entry Q124A): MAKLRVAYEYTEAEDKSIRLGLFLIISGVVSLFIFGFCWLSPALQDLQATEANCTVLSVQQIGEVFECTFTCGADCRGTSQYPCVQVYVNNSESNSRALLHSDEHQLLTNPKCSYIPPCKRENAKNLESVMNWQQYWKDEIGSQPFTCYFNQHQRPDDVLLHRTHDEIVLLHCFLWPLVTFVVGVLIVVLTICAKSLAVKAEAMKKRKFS
For experiment [3], the species on record is Homo sapiens. Briefly: Inhibition of human BK alpha/human beta4 Q124A mutant expressed in HEK293T cells assessed as K+ fractional outward current at 10 uM at -80 holding potential by whole cell patch clamp technique relative to control. The experiment is classed as cell-based.
The target of experiment [4] is Calcium-activated potassium channel subunit beta-4 (Homo sapiens, UniProt Q86W47, E104K). Briefly: Binding affinity to NT-495 fluorophore reagent labelled human BK beta4 E104K mutant incubated for 30 mins by microscale thermophoresis assay. A general note: In MST a laser heats a spot of the sample, and binding alters the fluorescence response.
Chain of Calcium-activated potassium channel subunit beta-4 (Homo sapiens, UniProt Q86W47, E104K) (Q86W47 whole entry E104K): as the sequence (Q86W47 whole entry Q124A) above, with E104K, A124Q counted along it
In experiment [5] the target is T1, KCNMA1/KCNMB4 (Rattus norvegicus) (UniProt Q62976+Q9ESK8). Kind of experiment: Inhibition of BK alpha/beta-4 in PTZ-stimulated rat hippocampal pyramidal neurons assessed as longer interval of interspike at -80mV holding potential measured after 10 mins during 300pA current injection by whole cell current clamp assay. The experiment is classed as protein-complex assay.

Experiment [6] deals with T1, KCNMA1/KCNMB4 (Rattus norvegicus). Kind of experiment: Inhibition of BK alpha/beta-4 in rat hippocampal pyramidal neurons assessed as inhibition of PTZ-induced action potential at -80 mV holding potential at 300 pA current injection measured after 10 mins by whole cell current clamp assay.
The target is the same in experiment [7]. Briefly: Inhibition of BK alpha/beta-4 in PTZ-stimulated rat hippocampal pyramidal neurons assessed as larger action potential width at 300 pA current injection at -80mV holding potential measured after 10 mins by whole cell current clamp assay. The experiment is classed as protein-complex assay.
Experiment [8] is filed under the species Rattus norvegicus. Kind of experiment: Anticonvulsant activity against PTZ-induced epileptic seizure Sprague-Dawley rat model assessed as mortality rate compound infused into hippocampal region and 10 mins later injected with PTZ and measured for 2 hrs post PTZ-stimulation (reference value: 33.33%). The experiment is classed as functional.
The species named for experiment [9] is Rattus norvegicus. Kind of experiment: Anticonvulsant activity against PTZ-induced epileptic seizure Sprague-Dawley rat model assessed as latency time of seizures compound infused into hippocampal region and 10 mins later injected with PTZ and measured for 2 hrs post PTZ-stimulation (reference value: 108.5 +/- 8.63 sec). The experiment is classed as functional.

The species named for experiment [10] is Rattus norvegicus. Briefly: Effect on neuronal network in PTZ-induced epileptic seizures Sprague-Dawley rat model assessed as lowered PSD at gamma wave band compound infused into hippocampal region and 10 mins later injected with PTZ and measured after 2 hrs by power spectral density analysis. The experiment is classed as functional, organism-based.
The species named for experiment [11] is Rattus norvegicus. Kind of experiment: Effect on neuronal network in PTZ-induced epileptic seizures Sprague-Dawley rat model assessed as lowered PSD at theta wave band compound infused into hippocampal region and 10 mins later injected with PTZ and measured after 2 hrs by power spectral density analysis. The experiment is classed as functional, organism-based.

For experiment [12], the species on record is Rattus norvegicus. Kind of experiment: Inhibition of C-Fos expression in PTZ-induced epileptic seizures Sprague-Dawley rat model assessed as inhibition of FLI-positive pyramidal neurons in CA3 region of ipsilateral hippocampus at 10 uM compound infused into hippocampal region and 10 mins later injected with PTZ and measured after 2 hrs by immunohistochemistry. The experiment is classed as functional, organism-based.

The species named for experiment [13] is Rattus norvegicus. Briefly: Inhibition of C-Fos expression in PTZ-induced epileptic seizures Sprague-Dawley rat model assessed as inhibition of FLI-positive pyramidal neurons in CA3 region of contralateral hippocampus at 10 uM compound infused into hippocampal region and 10 mins later injected with PTZ and measured after 2 hrs by immunohistochemistry. The experiment is classed as functional, organism-based.

The species entered for experiment [14] is Rattus norvegicus. Briefly: Neuroprotective activity in PTZ-induced epileptic seizure Sprague-Dawley rat model assessed as inhibition of hippocampal destruction by measuring increase in Nissl stained granular neurons in ipsilateral hippocampus DG region compound infused into hippocampal region and 10 mins later injected with PTZ and measured after 3 days by Nissl staining based microscopic analysis. The experiment is classed as functional, organism-based.

Experiment [15] is filed under the species Homo sapiens. Briefly: Selectivity ratio of compound Kd for NT-495 fluorophore reagent labelled human BK beta4 Q124A mutant to compound Kd for NT-495 fluorophore reagent labelled human BK beta4 (45 to 166 residues) by microscale thermophoresis assay.
The species named for experiment [16] is Rattus norvegicus. Kind of experiment: Inhibition of C-Fos expression in PTZ-induced epileptic seizures Sprague-Dawley rat model assessed as inhibition of FLI-positive granular neurons in DG region of ipsilateral hippocampus at 10 uM compound infused into hippocampal region and 10 mins later injected with PTZ and measured after 2 hrs by immunohistochemistry. The experiment is classed as functional, organism-based.

Experiment [17] concerns T2, Calcium-activated potassium channel subunit beta-4 (Homo sapiens), Q86W47 [E122K].
T2 sequence (whole entry): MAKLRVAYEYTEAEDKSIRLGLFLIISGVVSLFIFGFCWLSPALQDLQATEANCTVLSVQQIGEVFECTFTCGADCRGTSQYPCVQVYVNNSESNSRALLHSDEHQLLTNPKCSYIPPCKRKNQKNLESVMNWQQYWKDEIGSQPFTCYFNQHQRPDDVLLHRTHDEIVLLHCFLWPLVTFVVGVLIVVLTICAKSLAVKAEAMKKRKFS
Kind of experiment: Binding affinity to NT-495 fluorophore reagent labelled human BK beta4 E122K mutant incubated for 30 mins by microscale thermophoresis assay.

Each structure is given as a SMILES string. The source made the active and inactive calls. The calls are words filed in the database; no cut-off is given here.

As a reminder, the Kd is the equilibrium constant for the complex coming apart. By mortality is commonly meant the percentage killed. Turning to `CC[C@H](C)[C@H](NC(=O)[C@H](CC(C)C)NC(=O)CNC(=O)[C@H](Cc1ccccc1)NC(=O)[C@H](CO)NC(=O)CN)C(=O)N[C@@H](CC(=O)O)C(=O)N[C@H](C(=O)N[C@@H](CCCCN)C(=O)N[C@H]1CSSC[C@@H]2NC(=O)[C@H](CCCCN)NC(=O)CNC(=O)[C@H](CCC(N)=O)NC(=O)CNC(=O)[C@H](CO)NC(=O)CNC(=O)[C@H]([C@@H](C)O)NC(=O)[C@H](C(C)C)NC(=O)[C@H](CCCCN)NC(=O)[C@H](CCCCN)NC(=O)[C@@H]3CSSC[C@@H](C(=O)N[C@@H](Cc4ccc(O)cc4)C(=O)O)N[C@@H](CCCNC(=N)N)C(=O)[C@H](CSSC[C@H](NC(=O)[C@H](CCC(=O)O)NC(=O)[C@H](CO)NC(=O)[C@H](CO)NC(=O)[C@H](C)NC(=O)[C@H](Cc4ccccc4)NC1=O)C(=O)N[C@@H](Cc1c[nH]c4ccccc14)C(=O)N[C@@H]([C@@H](C)O)C(=O)N[C@@H](C)C(=O)N3)N[C@@H](CCC(N)=O)C(=O)NC(=O)[C@H](CC(N)=O)NC(=O)[C@H](CC(N)=O)NC(=O)[C@H](CCC(N)=O)NC2=O)C(C)C`, the Ratio in experiment [1] was 0.33; in experiment [3] it was 0.6. In addition, the dissociation constant Kd worked out at 975 µM in experiment [2] and 782 µM in experiment [4]. Besides, the inhibition entry in [5], in experiment [6], in [7], in experiment [12], in [13] and in [16] was “Active” in each case. Further, the mortality in experiment [8] was 0%. In addition, the Time in experiment [9] turned out to be 378.5 s. Besides, the outcome in experiment [10], in [11] and in experiment [14] was Active. In addition, the Selectivity ratio in experiment [15] stood at 2. The result in [17] was inactive.
